ChEMBL document CHEMBL1201862, “PubChem BioAssay data set” (2004)
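96-well plates; 48 h exposure; 5 concentrations. Endpoints by linear interpolation between flanking doses. Not reached: highest tested concentration assigned. At the GI50, growth is halved.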 Active and inactive are the calls of the source. Rule as the data show it: active = GI50 up to about 1.1 µM and inactive = higher.

What was measured:
Assay in all cases: NCI-60 cell line screen, 48 h
NCI-H460 = test system: NCI-H460
K562 = test system: K562
SK-MEL-5 = test system: SK-MEL-5
OVCAR-3 = test system: OVCAR-3
PC-3 = test system: PC-3
COLO 205 = test system: COLO 205
HOP-92 = test system: HOP-92
CAKI-1 = test system: CAKI-1
BT-549 = test system: BT-549
DU-145 = test system: DU-145
HT-29 = test system: HT-29
RXF 393 = test system: RXF 393
RPMI-8226 = test system: RPMI-8226
M14 = test system: M14
HCT-116 = test system: HCT-116
SK-OV-3 = test system: SK-OV-3
SF-295 = test system: SF-295
KM12 = test system: KM12
T47D = test system: T47D
TK-10 = test system: TK-10

Row | Structure (SMILES) | GI50 (NCI-H460) | GI50 (K562) | GI50 (SK-MEL-5) | GI50 (OVCAR-3) | GI50 (PC-3) | GI50 (COLO 205) | GI50 (HOP-92) | GI50 (CAKI-1) | GI50 (BT-549) | GI50 (DU-145) | GI50 (HT-29) | GI50 (RXF 393) | GI50 (RPMI-8226) | GI50 (M14) | GI50 (HCT-116) | GI50 (SK-OV-3) | GI50 (SF-295) | GI50 (KM12) | GI50 (T47D) | GI50 (TK-10)
1 | NC(CCC(=O)NC(CSC(=O)N(O)c1ccc(Cl)cc1)C(=O)NCC(=O)O)C(=O)O (stereo not given) | > 0.5 µM (active) | > 0.5 µM (active) | > 0.5 µM (active) | > 0.5 µM (active) | > 0.5 µM (active) | > 0.5 µM (active) | > 0.5 µM (active) | > 0.5 µM (active) | > 0.5 µM (active) | > 0.5 µM (active) | > 0.5 µM (active) | > 0.5 µM (active) | > 0.5 µM (active) | > 0.5 µM (active) | > 0.5 µM (active) | > 0.5 µM (active) | > 0.5 µM (active) | > 0.5 µM (active) |  | 
2 | COc1cc2c3c(n(C)c(=O)c2cc1OC)-c1cc2c(cc1/C3=C\CCCCCBr)OCO2 | 5.83 µM (inactive) | 6.3 µM (inactive) | 4.07 µM (inactive) |  | 28.8 µM (inactive) | 47.3 µM (inactive) | 4.52 µM (inactive) | 3.81 µM (inactive) | 93.1 µM (inactive) |  | 11.2 µM (inactive) |  | 5.41 µM (inactive) |  |  | 7.91 µM (inactive) | 4.56 µM (inactive) | 31.9 µM (inactive) | 2.75 µM (inactive) | 20.6 µM (inactive)
3 | CC1(c2ccccc2)N=c2[nH]cnc2=C(C(N)=O)N1 (stereo not given) | > 100 µM (inactive) | > 100 µM (inactive) | > 100 µM (inactive) | > 100 µM (inactive) | > 100 µM (inactive) | > 100 µM (inactive) | > 100 µM (inactive) | > 100 µM (inactive) |  | > 100 µM (inactive) | > 100 µM (inactive) | > 100 µM (inactive) | > 100 µM (inactive) | > 100 µM (inactive) | > 100 µM (inactive) | > 100 µM (inactive) | > 100 µM (inactive) | > 100 µM (inactive) | > 100 µM (inactive) | > 100 µM (inactive)
4 | OCCN(C1=NCCN1)/[N+](=C/c1ccc(Cl)cc1)[CH-]c1ccc(Cl)cc1 | > 100 µM (inactive) | 41.7 µM (inactive) | 23.8 µM (inactive) | > 100 µM (inactive) | 62.5 µM (inactive) | 62.4 µM (inactive) |  | > 100 µM (inactive) | > 100 µM (inactive) |  | 94.8 µM (inactive) | 15.5 µM (inactive) |  | 83.9 µM (inactive) | 95.5 µM (inactive) | > 100 µM (inactive) | > 100 µM (inactive) | > 100 µM (inactive) |  | > 100 µM (inactive)
5 | Cc1[nH]c2ccccc2c1C1=CC(=O)N(c2ccccc2)C1=O | 14.6 µM (inactive) | 6.37 µM (inactive) | 8 µM (inactive) | 9.53 µM (inactive) | 11.9 µM (inactive) | 17.7 µM (inactive) | 7.74 µM (inactive) | 6.22 µM (inactive) | 5.31 µM (inactive) | 4.74 µM (inactive) | 5.58 µM (inactive) | 6.67 µM (inactive) | 11.3 µM (inactive) | 13.6 µM (inactive) | 8.75 µM (inactive) | 34.3 µM (inactive) | 26.7 µM (inactive) |  |  | 11.1 µM (inactive)
6 | CCCCCCCCCCCCC(=O)OC(c1cnco1)c1nc(C(O)CC(O)C(O)C(C)O)co1 (stereo not given) | < 0.039 µM (active) | 0.21 µM (active) | 0.719 µM (active) | 2.85 µM (inactive) | 2.22 µM (inactive) | 0.273 µM (active) | 1.34 µM (inactive) | 0.265 µM (active) |  | > 10 µM (inactive) | 0.351 µM (active) | 1.38 µM (inactive) | 0.273 µM (active) | 0.491 µM (active) | 0.157 µM (active) | 3.94 µM (inactive) | 0.467 µM (active) | 0.766 µM (active) | 4.71 µM (inactive) | 5.62 µM (inactive)
7 | CN(C)c1ccc(/C=N/NC(=O)c2cnc3ccccc3c2)cc1 | > 100 µM (inactive) | > 100 µM (inactive) | > 100 µM (inactive) | > 100 µM (inactive) | > 100 µM (inactive) | > 100 µM (inactive) | 49.4 µM (inactive) | > 100 µM (inactive) | 94 µM (inactive) | 59.3 µM (inactive) |  | 19.9 µM (inactive) | > 100 µM (inactive) | > 100 µM (inactive) | > 100 µM (inactive) | 26.5 µM (inactive) | 71.4 µM (inactive) | 38.5 µM (inactive) |  | 26.3 µM (inactive)
8 | COc1ccc2[nH]cc(CCNC(=O)[C@H](Cc3ccc(O)cc3)NC(=O)[C@@H](NCC(F)(F)F)C(C)C)c2c1 | 48 µM (inactive) | 71.6 µM (inactive) |  | 20.1 µM (inactive) | > 100 µM (inactive) | 41.9 µM (inactive) | 75.5 µM (inactive) |  | 67.5 µM (inactive) | > 100 µM (inactive) | 52.5 µM (inactive) | > 100 µM (inactive) | 34.4 µM (inactive) | > 100 µM (inactive) | 95.5 µM (inactive) | > 100 µM (inactive) | 39.7 µM (inactive) | > 100 µM (inactive) |  | > 100 µM (inactive)
9 | CN1CCN(C(=S)N(C)C(=O)c2cccs2)CC1 | > 100 µM (inactive) | > 100 µM (inactive) | > 100 µM (inactive) | > 100 µM (inactive) |  | > 100 µM (inactive) | > 100 µM (inactive) |  | > 100 µM (inactive) | > 100 µM (inactive) | > 100 µM (inactive) | > 100 µM (inactive) | > 100 µM (inactive) | > 100 µM (inactive) |  |  | > 100 µM (inactive) | > 100 µM (inactive) | > 100 µM (inactive) | > 100 µM (inactive)
10 | CC1OC2(CC(OCc3ccccc3)C1OCc1ccccc1)OCCO2 (stereo not given) | 32 µM (inactive) | 77.8 µM (inactive) | 33 µM (inactive) | > 100 µM (inactive) | 59.8 µM (inactive) | 62.1 µM (inactive) | 49.9 µM (inactive) | 63.1 µM (inactive) | 59 µM (inactive) | 88.5 µM (inactive) | 20.9 µM (inactive) | 16.4 µM (inactive) | 35.2 µM (inactive) | 45.7 µM (inactive) | 45.9 µM (inactive) | > 100 µM (inactive) | 51.1 µM (inactive) | 63.7 µM (inactive) |  | > 100 µM (inactive)
11 | CC(C)(C)CC(C)(C)NC(=S)NO | > 100 µM (inactive) | > 100 µM (inactive) | > 100 µM (inactive) | > 100 µM (inactive) | > 100 µM (inactive) | > 100 µM (inactive) | 63.7 µM (inactive) | > 100 µM (inactive) |  | > 100 µM (inactive) | > 100 µM (inactive) | > 100 µM (inactive) | > 100 µM (inactive) | > 100 µM (inactive) | > 100 µM (inactive) | > 100 µM (inactive) | > 100 µM (inactive) | > 100 µM (inactive) | > 100 µM (inactive) | > 100 µM (inactive)
12 | OCC1C2CCC3(OCCO3)C12 (stereo not given) | > 100 µM (inactive) | > 100 µM (inactive) | > 100 µM (inactive) | > 100 µM (inactive) | > 100 µM (inactive) | > 100 µM (inactive) | > 100 µM (inactive) | > 100 µM (inactive) | 20.6 µM (inactive) | > 100 µM (inactive) | > 100 µM (inactive) | > 100 µM (inactive) | > 100 µM (inactive) | > 100 µM (inactive) | > 100 µM (inactive) | > 100 µM (inactive) | > 100 µM (inactive) | > 100 µM (inactive) |  | > 100 µM (inactive)
13 | O=C(c1cccs1)c1nccc2c1cnc1ccccc12 | > 100 µM (inactive) | > 100 µM (inactive) | > 100 µM (inactive) | > 100 µM (inactive) | > 100 µM (inactive) | > 100 µM (inactive) | 36.6 µM (inactive) | 41.5 µM (inactive) |  | > 100 µM (inactive) | > 100 µM (inactive) | 0.0113 µM (active) | > 100 µM (inactive) | > 100 µM (inactive) | 90.8 µM (inactive) | > 100 µM (inactive) | > 100 µM (inactive) | > 100 µM (inactive) | > 100 µM (inactive) | > 100 µM (inactive)
14 | COc1ccc(OC)c(C#Cc2ccc(OC)c(C(=O)NCCc3ccc(F)cc3)c2)c1 | 5.09 µM (inactive) | 2.39 µM (inactive) | 4.42 µM (inactive) |  | 5.14 µM (inactive) | 5.22 µM (inactive) |  | > 100 µM (inactive) | > 100 µM (inactive) |  | 3.17 µM (inactive) |  | 3.32 µM (inactive) | 5.53 µM (inactive) |  |  | 4.67 µM (inactive) | 4.13 µM (inactive) | 2.86 µM (inactive) | > 100 µM (inactive)
15 | CC(=O)O[C@H]1C(=O)[C@]2(C)[C@@H](OC(=O)OCC(O)CO)C[C@H]3OC[C@@]3(OC(C)=O)[C@H]2[C@H](OC(=O)c2ccccc2)[C@]2(O)C[C@H](OC(=O)[C@H](O)[C@@H](NC(=O)c3ccccc3)c3ccccc3)C(C)=C1C2(C)C (stereo not given in full) [PACLITAXEL CERIBATE] | < 0.01 µM (active) | < 0.01 µM (active) | < 0.01 µM (active) | < 0.01 µM (active) | < 0.01 µM (active) | < 0.01 µM (active) | 22.4 µM (inactive) | 0.893 µM (active) | < 0.0147 µM (active) | < 0.01 µM (active) | < 0.01 µM (active) | < 0.01 µM (active) | < 0.01 µM (active) | < 0.01 µM (active) | < 0.01 µM (active) | < 0.01 µM (active) | < 0.01 µM (active) | < 0.01 µM (active) |  | 0.0875 µM (active)
